# Experimental data as given in patent US20240218344A1, “LIQUID THROMBIN REAGENT” (Instrumentation Laboratory Company, priority 2022, published 2024).
# Counter-ions that a name gives are not always drawn.
# Assays:
# Type in all cases: biochemical
# bovine thrombin [1] = biological target: bovine thrombin (Bos taurus, UniProt P00735); experiment: Stability of liquid thrombin reagent with alkylated guanidine derivatives, clotting assay; conditions: 25 mM guanidine derivative, approximately 75 U/mL bovine thrombin, MES pH 6.3, stored at 37° C. for 7 or 14 days; FIG. 5
# Experimental: (§1) In the clotting assay, the liquid thrombin reagent was diluted with an aqueous buffer to a final thrombin concentration of within 5 to 15 U/mL of thrombin. Then, 20 to 40 microliters (μL) of the diluted liquid thrombin reagent was mixed with 80 μL of a reaction buffer containing 20 mM HEPES, pH 7.4, containing 150 mM NaCl and 0.5% BSA (bovine serum albumin). After an incubation period of 60 to 90 seconds at 37° C., 80 μL of normal pooled plasma was added to the mixture and the time to clot was determined using a threshold algorithm.
# The effects of guanidine derivatives were analyzed using a clotting assay. In this experiment, liquid thrombin reagents containing bovine thrombin were diluted to a final concentration of approximately 75 U/mL thrombin with an aqueous buffer comprising a MES buffer containing 20 mM MES, pH 6.3, and 0.1% ProClin™ 300, with and without 25 mM of 1-methylguanidine (MMG), 25 mM of 1.1-dimethylguanidine (DMG) and 25 mM of 1,1-diethylguanidine (DEG).
# Liquid thrombin reagents of the type described herein containing guanidine derivatives, and one without a guanidine derivative, were stored at 37° C. for 0, 7, and 14 days and tested using the clotting assay after mixing with normal pooled plasma.
# factor Xa = experiment: Factor Xa chromogenic assay with guanidine and guanidine derivatives; conditions: dilution series in water, 6 nkat/mL factor Xa, substrate S-2732, 405 nm; FIG. 4
# Experimental: In this experiment, the effects of guanidine sulfate and the guanidine derivatives: 1-methylguanidine sulfate, 1,1-dimethylguanidine sulfate, 1,1-diethylguanidine, and N-benzyl, N-methylguanidine sulfate were analyzed using a chromogenic assay. A series of dilutions was prepared in water with guanidine or a guanidine derivative of the type described herein. 40 μL of each of the guanidine or guanidine derivatives were mixed for 20 to 60 seconds with 40 μL of 6 nanokatal per milliliter (nkat/mL) factor Xa diluted in 20 mM HEPES, pH 7.5 buffer. After an incubation period of 150 to 180 seconds, 100 μL of the factor Xa chromogenic substrate S-2732 (1.5 mM) was added to each of the guanidine and factor Xa mixtures and was chromogenically measured at 405 nm milli-absorbance per minute (mAbs/min) after a 20 second delay.
# bovine thrombin [2] = experiment: Stability of liquid thrombin reagent with apixaban, clotting assay; conditions: 500 ng/ml apixaban, approximately 100 U/mL bovine thrombin, stored at 45° C. for 0-14 days; FIG. 3
# Experimental: In the clotting assay, the liquid thrombin reagent was diluted with an aqueous buffer to a final thrombin concentration of within 5 to 15 U/mL of thrombin. Then, 20 to 40 microliters (μL) of the diluted liquid thrombin reagent was mixed with 80 μL of a reaction buffer containing 20 mM HEPES, pH 7.4, containing 150 mM NaCl and 0.5% BSA (bovine serum albumin). After an incubation period of 60 to 90 seconds at 37° C., 80 μL of normal pooled plasma was added to the mixture and the time to clot was determined using a threshold algorithm. In this experiment, the effects of the direct factor Xa inhibitor apixaban was analyzed using a clotting assay. Liquid thrombin reagent containing low purity grade bovine thrombin was diluted to a final concentration of approximately 100 U/mL thrombin in an aqueous buffer containing 20 mM MES, pH 6.1, 100 mM NaCl, 25 mM sodium acetate, 25 mM sodium lactate, 5 mM CaCl2, 0.5% BSA, and 0.4 g/L NaN3. Apixaban was dissolved in dimethyl sulfoxide (DMSO) and diluted to a final concentration of 500 ng/ml apixaban in a sample of the liquid thrombin reagent. Liquid thrombin reagents with and without apixaban were stored at 45° C. for 0, 2, 4, 7, 10 and 14 days, and tested in quadruplicate by the clotting assay after mixture with normal pooled plasma. […]
# thrombin [3] = experiment: Alkylated guanidine concentrations for thrombin stability, clotting assay; conditions: less than 20 mM DMG, 7 U/mL thrombin, 37° C. for 20 days versus 2 to 8° C.; FIG. 6
# Experimental: as §1
# A series of liquid thrombin reagents containing dimethylguanidine (DMG) were analyzed using a clotting assay. A series of liquid thrombin reagents containing 7 U/mL liquid thrombin were prepared in an aqueous buffer containing 20 mM MES, pH 6.3, 0.1% ProClin™ 300, and a final concentration of 5, 10, 15, 20, 25, or 30 mM DMG. The resulting liquid thrombin reagents were stored at 37° C for 20 days, and the remaining thrombin activity was compared to the liquid thrombin reagent containing the same concentration of guanidine derivative stored at 2 to 8° C. for 20 days.
# thrombin [4] = experiment: Thrombin concentrations for liquid thrombin reagent stability, clotting assay; conditions: 30 mM DMG, 37° C. for 7 days, FIG. 7
# Experimental: as §1
# The effect of guanidine derivatives on a series of thrombin concentrations were analyzed using a clotting assay. A series of liquid thrombin reagents containing 30 mM DMG were prepared by diluting a 100 U/mL thrombin liquid thrombin reagent in MES buffer (containing 30 mM DMG, 20 mM MES, pH 6.3, and 0.1% ProClin™ 300) with MES buffer to final concentrations of 70, 56, 42, 28, 14 or 7 U/mL thrombin. The liquid thrombin reagents were stored at 37° C. for 7 days and tested for thrombin activity using the clotting assay.
SMILES,thrombin activity after storage (bovine thrombin [1]),factor Xa inhibition (factor Xa),further results
"CNC(=N)N.O=S(=O)(O)O [1,1 methylguanidine sulfate, 1-methylguanidine sulfate]",little or no decrease in thrombin activity,,
"CCN(CC)C(=N)N [diethylguanidine sulfate, 1,1-diethylguanidine]",little or no decrease in thrombin activity,largest extent of factor Xa inhibition,
"N=C(N)N.N=C(N)N.O=S(=O)(O)O [guanidine sulfate, reference compound]",,least reduction in factor Xa inhibition,
COc1ccc(-n2nc(C(N)=O)c3c2C(=O)N(c2ccc(N4CCCCC4=O)cc2)CC3)cc1 [apixaban],,,stability of the liquid thrombin reagent (time-to-clot versus reagent without apixaban) (bovine thrombin [2]): improves the stability of the liquid thrombin reagent in the long term
"CN(Cc1ccccc1)C(=N)N.O=S(=O)(O)O [N-benzyl N-methylguanidine sulfate, N-benzyl, N-methylguanidine sulfate]",,reduced factor Xa inhibition,
"CN(C)C(=N)N.O=S(=O)(O)O [dimethylguanidine sulfate, 1,1-dimethylguanidine sulfate]",little or no decrease in thrombin activity,largest extent of factor Xa inhibition,remaining thrombin activity (thrombin [3]): declined; remaining thrombin activity (thrombin [4]; less than about 20 U/mL thrombin): declined; remaining thrombin activity (thrombin [4]; more than about 20 U/mL thrombin): did not decline significantly
